Laboratory results as given in ChEMBL document CHEMBL1134910 (Bioorg Med Chem Lett, 2002).

Key:
[1] = molecular target: Adenosine receptor A2a (Sus scrofa)
Adenosine receptor A2a = Adenosine receptor A2a (Rattus norvegicus, UniProt P30543)
Description: Receptor binding affinity for the adenosine A2A receptor was determined using [3H]ZM-241385 as a radioligand in rat

Adenosine receptor A1 = molecular target: T1, Adenosine receptor A1 (Homo sapiens, UniProt P30542); test: Binding affinity for adenosine (ADO) A1 receptor in CHO cells; format: cell-based
T1 sequence (P30542 whole entry): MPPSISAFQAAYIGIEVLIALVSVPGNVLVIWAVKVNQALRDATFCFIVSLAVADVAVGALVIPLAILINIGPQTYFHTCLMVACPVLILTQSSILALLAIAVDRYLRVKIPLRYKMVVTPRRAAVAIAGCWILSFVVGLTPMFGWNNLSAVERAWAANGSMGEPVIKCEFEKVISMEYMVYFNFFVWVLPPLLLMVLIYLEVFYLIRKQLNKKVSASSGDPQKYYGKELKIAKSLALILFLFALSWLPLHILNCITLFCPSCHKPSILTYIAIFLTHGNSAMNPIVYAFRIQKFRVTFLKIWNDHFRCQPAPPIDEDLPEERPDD

Adenosine receptor A3 = molecular target: T2, Adenosine receptor A3 (Homo sapiens, UniProt P0DMS8); test: Binding affinity for Adenosine A3A receptor
T2 sequence (P0DMS8 whole entry): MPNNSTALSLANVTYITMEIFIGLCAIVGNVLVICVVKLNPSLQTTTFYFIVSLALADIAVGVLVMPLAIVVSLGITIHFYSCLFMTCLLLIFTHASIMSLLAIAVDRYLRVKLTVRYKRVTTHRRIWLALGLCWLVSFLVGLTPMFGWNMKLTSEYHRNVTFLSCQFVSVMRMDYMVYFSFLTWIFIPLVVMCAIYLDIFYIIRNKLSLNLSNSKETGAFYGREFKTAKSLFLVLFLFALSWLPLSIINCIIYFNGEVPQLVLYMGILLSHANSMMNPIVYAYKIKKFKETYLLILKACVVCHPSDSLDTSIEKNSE

Sequence of Adenosine receptor A2a (P30543 whole entry): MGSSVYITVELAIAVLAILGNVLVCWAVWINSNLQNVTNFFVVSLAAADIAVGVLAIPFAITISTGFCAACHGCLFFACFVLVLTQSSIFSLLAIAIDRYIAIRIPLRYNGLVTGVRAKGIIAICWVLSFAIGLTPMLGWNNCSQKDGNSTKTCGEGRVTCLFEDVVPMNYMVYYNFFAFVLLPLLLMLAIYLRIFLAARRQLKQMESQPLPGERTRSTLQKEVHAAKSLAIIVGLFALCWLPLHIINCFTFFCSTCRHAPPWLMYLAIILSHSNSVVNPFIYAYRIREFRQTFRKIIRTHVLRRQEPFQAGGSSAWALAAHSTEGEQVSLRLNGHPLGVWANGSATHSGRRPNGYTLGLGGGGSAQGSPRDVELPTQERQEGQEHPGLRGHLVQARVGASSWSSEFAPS

## CCCc1c(C)nn(-c2nc(N)c3ncn([C@@H]4O[C@H](CO)[C@@H](O)[C@H]4O)c3n2)c1C
[1]
  Ki: > 100000 nM

## C=CCCCn1cc(-c2nc(N)c3ncn([C@@H]4O[C@H](CO)[C@@H](O)[C@H]4O)c3n2)cn1
[1]
  Ki: 1710 nM
Adenosine receptor A2a
  Ki: 470 nM

## CCNC(=O)c1cnn(-c2nc(N)c3ncn([C@@H]4O[C@H](CO)[C@@H](O)[C@H]4O)c3n2)c1
[1]
  Ki: 380 nM
Adenosine receptor A2a
  Ki: 60 nM

## CCCCc1c(C)nn(-c2nc(N)c3ncn([C@@H]4O[C@H](CO)[C@@H](O)[C@H]4O)c3n2)c1C
[1]
  Ki: > 100000 nM

## CC(C)(C)c1ccc(Cn2cc(-c3nc(N)c4ncn([C@@H]5O[C@H](CO)[C@@H](O)[C@H]5O)c4n3)cn2)cc1
[1]
  Ki: 2420 nM
Adenosine receptor A2a
  Ki: 5290 nM

## CN(C)C(=O)Cn1cc(-c2nc(N)c3ncn([C@@H]4O[C@H](CO)[C@@H](O)[C@H]4O)c3n2)cn1
[1]
  Ki: > 100000 nM
Adenosine receptor A2a
  Ki: 21000 nM

## Cc1cc(-c2ccccc2)nn1-c1nc(N)c2ncn([C@@H]3O[C@H](CO)[C@@H](O)[C@H]3O)c2n1
[1]
  Ki: > 100000 nM

## CNC(=O)Cn1cc(-c2nc(N)c3ncn([C@@H]4O[C@H](CO)[C@@H](O)[C@H]4O)c3n2)cn1
[1]
  Ki: > 100000 nM
Adenosine receptor A2a
  Ki: > 100000 nM

## Nc1nc(-c2cn[nH]c2)nc2c1ncn2[C@@H]1O[C@H](CO)[C@@H](O)[C@H]1O
[1]
  Ki: > 100000 nM
Adenosine receptor A2a
  Ki: > 100000 nM

## Nc1nc(-c2cnn(CC(=O)O)c2)nc2c1ncn2[C@@H]1O[C@H](CO)[C@@H](O)[C@H]1O
[1]
  Ki: > 100000 nM
Adenosine receptor A2a
  Ki: > 100000 nM

## Cn1cc(-c2nc(N)c3ncn([C@@H]4O[C@H](CO)[C@@H](O)[C@H]4O)c3n2)cn1
[1]
  Ki: > 100000 nM
Adenosine receptor A2a
  Ki: > 100000 nM

## CCOC(=O)c1cnn(-c2nc(N)c3ncn([C@@H]4O[C@H](CO)[C@@H](O)[C@H]4O)c3n2)c1
[1]
  Ki: 1280 nM
Adenosine receptor A2a
  Ki: 60 nM

## Nc1nc(-c2cnn(CC3CCCCC3)c2)nc2c1ncn2[C@@H]1O[C@H](CO)[C@@H](O)[C@H]1O
[1]
  Ki: 880 nM
Adenosine receptor A2a
  Ki: 220 nM

## Nc1nc(-c2cnn(CCCC3CCCCC3)c2)nc2c1ncn2[C@@H]1O[C@H](CO)[C@@H](O)[C@H]1O
[1]
  Ki: 6680 nM
Adenosine receptor A2a
  Ki: 2620 nM

## NC(=O)c1cnn(-c2nc(N)c3ncn([C@@H]4O[C@H](CO)[C@@H](O)[C@H]4O)c3n2)c1
[1]
  Ki: 1350 nM
Adenosine receptor A2a
  Ki: 350 nM

## Nc1nc(N/N=C\C2CCCCC2)nc2c1ncn2[C@@H]1O[C@H](CO)[C@@H](O)[C@H]1O
Adenosine receptor A2a
  Ki: 66 nM

## CCCCCCCCCCn1cc(-c2nc(N)c3ncn([C@@H]4O[C@H](CO)[C@@H](O)[C@H]4O)c3n2)cn1
[1]
  Ki: > 100000 nM
Adenosine receptor A2a
  Ki: 6110 nM

## CNC(=O)c1cnn(-c2nc(N)c3ncn([C@@H]4O[C@H](CO)[C@@H](O)[C@H]4O)c3n2)c1 [REGADENOSON ANHYDROUS]
Adenosine receptor A1
  Ki: > 16500 nM
Adenosine receptor A3
  Ki: > 10000 nM

## COc1ccc(-c2cnn(-c3nc(N)c4ncn([C@@H]5O[C@H](CO)[C@@H](O)[C@H]5O)c4n3)c2)cc1
[1]
  Ki: 560 nM
Adenosine receptor A2a
  Ki: 190 nM

## CCNC(=O)Cn1cc(-c2nc(N)c3ncn([C@@H]4O[C@H](CO)[C@@H](O)[C@H]4O)c3n2)cn1
[1]
  Ki: > 100000 nM
Adenosine receptor A2a
  Ki: > 100000 nM

## Cc1ccc(-c2cnn(-c3nc(N)c4ncn([C@@H]5O[C@H](CO)[C@@H](O)[C@H]5O)c4n3)c2)cc1
[1]
  Ki: 490 nM
Adenosine receptor A2a
  Ki: 190 nM

## CCCCCn1cc(-c2nc(N)c3ncn([C@@H]4O[C@H](CO)[C@@H](O)[C@H]4O)c3n2)cn1
Adenosine receptor A3
  Ki: > 10000 nM
[1]
  Ki: 2140 nM
Adenosine receptor A2a
  Ki: 2590 nM

## CN(C)C(=O)c1cnn(-c2nc(N)c3ncn([C@@H]4O[C@H](CO)[C@@H](O)[C@H]4O)c3n2)c1
[1]
  Ki: 440 nM
Adenosine receptor A2a
  Ki: 140 nM

## Nc1nc(-c2cnn(Cc3ccccc3)c2)nc2c1ncn2[C@@H]1O[C@H](CO)[C@@H](O)[C@H]1O
[1]
  Ki: 1580 nM
Adenosine receptor A2a
  Ki: 1610 nM

## CCCNC(=O)c1cnn(-c2nc(N)c3ncn([C@@H]4O[C@H](CO)[C@@H](O)[C@H]4O)c3n2)c1
[1]
  Ki: 120 nM
Adenosine receptor A2a
  Ki: 50 nM

## Nc1nc(-c2cnn(CCc3ccccc3)c2)nc2c1ncn2[C@@H]1O[C@H](CO)[C@@H](O)[C@H]1O
[1]
  Ki: 5900 nM
Adenosine receptor A2a
  Ki: 2260 nM
